Structures are written as SMILES.

Common to all, as to assay: Kinobeads competition binding, L-363 cell lysate
Common to all, as to design: endogenous in cells
Common to all, as to details: 10 μM free compound, L-363 lysate

One test deals with T1, MAP3K2 (Homo sapiens, UniProt Q9Y2U5).
T1 sequence (Q9Y2U5 1-619): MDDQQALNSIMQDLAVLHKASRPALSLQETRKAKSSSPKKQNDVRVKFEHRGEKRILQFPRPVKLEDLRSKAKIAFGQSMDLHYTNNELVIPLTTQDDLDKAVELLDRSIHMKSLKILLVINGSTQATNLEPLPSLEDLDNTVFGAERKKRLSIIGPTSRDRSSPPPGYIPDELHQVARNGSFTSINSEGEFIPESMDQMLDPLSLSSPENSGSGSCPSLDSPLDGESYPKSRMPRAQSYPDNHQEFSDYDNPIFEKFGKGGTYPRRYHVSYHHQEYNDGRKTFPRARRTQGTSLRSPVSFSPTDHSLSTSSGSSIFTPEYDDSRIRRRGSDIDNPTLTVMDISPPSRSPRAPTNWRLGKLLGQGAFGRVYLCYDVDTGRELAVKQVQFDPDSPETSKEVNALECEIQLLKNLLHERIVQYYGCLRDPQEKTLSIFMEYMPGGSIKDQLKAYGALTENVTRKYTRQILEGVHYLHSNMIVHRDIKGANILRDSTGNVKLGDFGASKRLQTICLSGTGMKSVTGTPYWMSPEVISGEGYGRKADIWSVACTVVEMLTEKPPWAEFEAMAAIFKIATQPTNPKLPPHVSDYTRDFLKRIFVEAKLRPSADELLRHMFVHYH
Put shortly: (§1)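 Bead-bound proteins were quantified by tandem mass spectrometry after iTRAQ labeling. Beforehand, lysate from proteasome-inhibited L-363 cells had been incubated with the free compound at 10 μM, with a solvent-only aliquot as reference.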

A further test concerns the target RSK3 (Homo sapiens, UniProt Q15349). The method, boiled down:
as §1

A further test deals with YES (Homo sapiens, UniProt P07947). Put shortly: as §1
A further test concerns the target T2, GCK (Homo sapiens, UniProt Q12851).
T2 sequence (Q12851 1-820): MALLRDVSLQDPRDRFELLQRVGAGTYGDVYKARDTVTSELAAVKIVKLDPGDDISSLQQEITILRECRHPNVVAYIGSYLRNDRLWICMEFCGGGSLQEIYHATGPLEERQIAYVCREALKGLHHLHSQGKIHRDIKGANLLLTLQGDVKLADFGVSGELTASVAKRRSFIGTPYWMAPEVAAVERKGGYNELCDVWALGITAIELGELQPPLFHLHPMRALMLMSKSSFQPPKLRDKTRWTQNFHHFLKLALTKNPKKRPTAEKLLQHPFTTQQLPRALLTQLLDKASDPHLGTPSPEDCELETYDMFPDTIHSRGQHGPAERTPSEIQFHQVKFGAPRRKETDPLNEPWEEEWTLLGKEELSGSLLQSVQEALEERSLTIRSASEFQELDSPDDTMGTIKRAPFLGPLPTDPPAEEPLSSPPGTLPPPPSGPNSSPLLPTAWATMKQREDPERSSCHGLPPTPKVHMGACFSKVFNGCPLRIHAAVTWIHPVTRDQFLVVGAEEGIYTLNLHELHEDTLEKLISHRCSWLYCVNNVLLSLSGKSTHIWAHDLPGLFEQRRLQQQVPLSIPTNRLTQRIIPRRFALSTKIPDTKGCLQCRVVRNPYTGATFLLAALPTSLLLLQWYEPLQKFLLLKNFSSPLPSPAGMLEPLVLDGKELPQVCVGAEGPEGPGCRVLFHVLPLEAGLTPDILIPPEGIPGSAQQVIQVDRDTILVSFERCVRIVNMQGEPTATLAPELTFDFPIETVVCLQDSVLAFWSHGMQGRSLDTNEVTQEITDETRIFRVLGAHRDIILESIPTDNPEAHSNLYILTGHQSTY
Put shortly:
as §1

A further test addresses MPSK1 (Homo sapiens, UniProt O75716). Put shortly: as §1
The target of a further test is T3, MAP2K5 (Homo sapiens, UniProt Q13163).
T3 sequence (Q13163 1-448): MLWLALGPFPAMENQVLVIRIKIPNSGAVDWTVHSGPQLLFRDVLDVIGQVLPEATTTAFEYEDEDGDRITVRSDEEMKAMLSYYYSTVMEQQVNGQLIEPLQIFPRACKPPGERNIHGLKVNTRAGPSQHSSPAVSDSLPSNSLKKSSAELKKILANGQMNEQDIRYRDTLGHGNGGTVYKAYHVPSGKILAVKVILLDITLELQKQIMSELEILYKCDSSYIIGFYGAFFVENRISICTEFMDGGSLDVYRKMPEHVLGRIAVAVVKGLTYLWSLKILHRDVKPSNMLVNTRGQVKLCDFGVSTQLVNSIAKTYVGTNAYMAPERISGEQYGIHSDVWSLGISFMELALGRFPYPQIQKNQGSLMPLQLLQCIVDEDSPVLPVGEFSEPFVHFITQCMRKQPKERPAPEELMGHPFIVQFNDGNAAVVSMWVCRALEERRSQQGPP
The method, boiled down:
as §1

For a further test, the target named is MARK3 (Homo sapiens, UniProt P27448). Put shortly:
as §1

In the next test the target is CHK1 (Homo sapiens, UniProt O14757). Put shortly: as §1
The target of another test is DNAPK (Homo sapiens, UniProt P78527). Put shortly: as §1
For another test, the target named is MST2 (Homo sapiens, UniProt Q13188). Put shortly: as §1
MST2, sequence (Q13188 whole entry): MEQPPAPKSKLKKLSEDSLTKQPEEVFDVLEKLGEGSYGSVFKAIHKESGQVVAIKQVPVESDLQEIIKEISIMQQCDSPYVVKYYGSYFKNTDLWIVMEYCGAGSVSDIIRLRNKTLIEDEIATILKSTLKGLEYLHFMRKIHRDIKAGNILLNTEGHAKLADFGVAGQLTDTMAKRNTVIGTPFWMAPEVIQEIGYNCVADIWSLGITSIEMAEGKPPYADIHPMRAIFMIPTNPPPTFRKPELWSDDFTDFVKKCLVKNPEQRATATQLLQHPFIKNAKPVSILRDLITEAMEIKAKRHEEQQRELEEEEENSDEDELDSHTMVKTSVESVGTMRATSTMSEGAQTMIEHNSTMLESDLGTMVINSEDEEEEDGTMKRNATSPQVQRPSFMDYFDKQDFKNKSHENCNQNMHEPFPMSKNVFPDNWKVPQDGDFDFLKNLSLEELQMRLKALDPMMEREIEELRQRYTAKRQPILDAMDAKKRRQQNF

MARK3, sequence (P27448 whole entry): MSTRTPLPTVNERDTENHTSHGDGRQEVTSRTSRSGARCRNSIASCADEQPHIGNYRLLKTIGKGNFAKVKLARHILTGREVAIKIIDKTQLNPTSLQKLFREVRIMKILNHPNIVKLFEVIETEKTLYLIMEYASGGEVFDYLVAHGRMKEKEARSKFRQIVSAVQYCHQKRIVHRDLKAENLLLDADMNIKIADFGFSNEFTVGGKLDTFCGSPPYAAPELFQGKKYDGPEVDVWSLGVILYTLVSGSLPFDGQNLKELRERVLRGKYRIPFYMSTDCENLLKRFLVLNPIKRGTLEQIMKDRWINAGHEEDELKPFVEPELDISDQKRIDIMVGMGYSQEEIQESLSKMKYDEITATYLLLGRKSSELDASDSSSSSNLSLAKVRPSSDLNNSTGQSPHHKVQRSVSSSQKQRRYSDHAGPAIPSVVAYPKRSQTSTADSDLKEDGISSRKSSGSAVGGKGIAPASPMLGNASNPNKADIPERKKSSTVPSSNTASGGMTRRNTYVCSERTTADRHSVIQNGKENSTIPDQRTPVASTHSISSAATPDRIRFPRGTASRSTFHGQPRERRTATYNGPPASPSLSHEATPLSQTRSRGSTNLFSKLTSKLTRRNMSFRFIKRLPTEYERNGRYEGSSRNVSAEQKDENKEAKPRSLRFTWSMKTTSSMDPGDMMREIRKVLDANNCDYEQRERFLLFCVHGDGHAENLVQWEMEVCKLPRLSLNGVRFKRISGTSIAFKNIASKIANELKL
MPSK1, sequence (O75716 whole entry): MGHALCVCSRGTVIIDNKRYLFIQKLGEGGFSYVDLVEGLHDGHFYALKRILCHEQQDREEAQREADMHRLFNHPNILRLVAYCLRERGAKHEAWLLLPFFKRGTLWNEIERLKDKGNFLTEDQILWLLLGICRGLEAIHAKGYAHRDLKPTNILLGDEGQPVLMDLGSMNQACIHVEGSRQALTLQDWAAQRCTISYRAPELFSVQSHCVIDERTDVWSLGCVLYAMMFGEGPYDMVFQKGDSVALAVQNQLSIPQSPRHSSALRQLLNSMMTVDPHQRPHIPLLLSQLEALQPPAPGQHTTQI
RSK3, sequence (Q15349 whole entry): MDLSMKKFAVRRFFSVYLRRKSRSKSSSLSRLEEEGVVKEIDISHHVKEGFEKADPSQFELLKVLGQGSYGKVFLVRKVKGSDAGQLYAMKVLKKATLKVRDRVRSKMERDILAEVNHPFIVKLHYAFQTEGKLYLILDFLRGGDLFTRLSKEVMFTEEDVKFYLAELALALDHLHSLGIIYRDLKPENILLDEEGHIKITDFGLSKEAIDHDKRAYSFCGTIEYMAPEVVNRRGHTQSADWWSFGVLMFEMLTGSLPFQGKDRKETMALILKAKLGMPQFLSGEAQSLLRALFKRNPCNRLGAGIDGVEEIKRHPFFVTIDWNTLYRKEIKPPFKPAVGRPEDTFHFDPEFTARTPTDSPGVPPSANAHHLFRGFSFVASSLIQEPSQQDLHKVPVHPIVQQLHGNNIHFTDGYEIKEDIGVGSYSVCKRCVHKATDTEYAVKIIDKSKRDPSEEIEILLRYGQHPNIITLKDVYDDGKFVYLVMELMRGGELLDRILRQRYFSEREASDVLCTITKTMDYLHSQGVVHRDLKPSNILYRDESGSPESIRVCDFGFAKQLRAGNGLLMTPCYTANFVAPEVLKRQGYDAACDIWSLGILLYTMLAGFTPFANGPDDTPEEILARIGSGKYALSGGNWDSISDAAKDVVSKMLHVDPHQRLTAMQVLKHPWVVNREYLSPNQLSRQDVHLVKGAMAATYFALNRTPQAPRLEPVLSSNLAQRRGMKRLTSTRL
CHK1, sequence (O14757 whole entry): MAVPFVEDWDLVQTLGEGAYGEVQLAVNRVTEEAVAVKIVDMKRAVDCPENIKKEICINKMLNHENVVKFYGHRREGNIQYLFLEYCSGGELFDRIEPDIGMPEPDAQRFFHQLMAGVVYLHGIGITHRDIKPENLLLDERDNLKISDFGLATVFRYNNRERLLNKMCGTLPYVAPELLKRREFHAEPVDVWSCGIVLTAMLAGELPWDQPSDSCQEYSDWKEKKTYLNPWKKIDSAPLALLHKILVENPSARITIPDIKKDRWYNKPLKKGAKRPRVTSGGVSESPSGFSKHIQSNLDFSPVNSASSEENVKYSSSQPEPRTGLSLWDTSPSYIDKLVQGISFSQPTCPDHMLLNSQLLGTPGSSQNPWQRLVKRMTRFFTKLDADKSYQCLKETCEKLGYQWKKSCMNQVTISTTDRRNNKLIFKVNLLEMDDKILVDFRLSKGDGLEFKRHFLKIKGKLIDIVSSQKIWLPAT
YES, sequence (P07947 whole entry): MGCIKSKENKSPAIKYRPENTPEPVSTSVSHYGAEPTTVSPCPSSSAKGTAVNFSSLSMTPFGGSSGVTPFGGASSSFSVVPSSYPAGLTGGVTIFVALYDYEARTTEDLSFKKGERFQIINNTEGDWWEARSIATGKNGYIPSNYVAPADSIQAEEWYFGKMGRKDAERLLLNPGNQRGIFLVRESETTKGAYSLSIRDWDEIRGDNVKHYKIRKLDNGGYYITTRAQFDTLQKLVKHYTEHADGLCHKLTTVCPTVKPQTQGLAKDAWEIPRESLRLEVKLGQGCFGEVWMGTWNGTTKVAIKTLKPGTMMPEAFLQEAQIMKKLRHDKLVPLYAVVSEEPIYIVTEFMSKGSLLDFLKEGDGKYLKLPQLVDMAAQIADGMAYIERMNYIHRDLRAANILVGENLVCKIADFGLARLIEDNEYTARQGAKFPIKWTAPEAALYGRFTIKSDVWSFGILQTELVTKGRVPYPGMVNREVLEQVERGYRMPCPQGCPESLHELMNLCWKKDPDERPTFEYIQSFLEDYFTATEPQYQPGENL

In the case of `CS(=O)(=O)Nc1ccccc1Nc1nc(Nc2cccc(OCCN)c2)ncc1Cl` [CZC31326, N-(2-(2-(3-(2-aminoethoxy)phenylamino)-5-chloropyrimidin-4-ylamino)phenyl)methanesulfonamide], the inhibition – broadly, the drop in the measured response relative to a control, in per cent – at 10 µM was determined as 96% at MAP3K2; 96.9% on RSK3; 89.6% at YES; 95.1% on GCK; 93.3% at MPSK1; 97.5% on MAP2K5. The inhibition at 10 µM at MARK3 worked out at 97%; at DNAPK, 84%; on MST2, 98.2%. Further, the Competition % at CHK1 is 94.8%.

For the origin of these results see patent US20120270237A9, “METHODS FOR THE IDENTIFICATION OF KINASE INTERACTING MOLECULES AND FOR THE PURIFICATION OF KINASE PROTEINS” (Cellzone AG, priority 2009, published 2012).
